Like-named read-outs stand apart in the source and are kept apart here.
Experiments:
PC3M-GFP-PTB cells = experiment: PNC prevalence / PNC disassembly in PC3M-GFP-PTB cells; assay type: cell-based, human
Excerpt: FIG. 1 is a graph showing the concentration-response curve against PNC prevalence in PC3M (a metastatic prostate cancer cell line)-GFP (green fluorescent protein)-PTB (polypyrimidine tract-binding protein) cells (squares, PC3M, has a PNC prevalence of 75-85% in the absence of treatment) and cytotoxicity as measured by cellular ATP (CELLTITER GLO™) (circles). Representative PTB-GFP images for cells at the indicated concentrations (arrowheads indicate PNCs) (scale bar=5 μm) are shown in the three panels above the graph. The relative signal (%) is along the y-axis and Metarrestin [log M] is along the x-axis.
A metastatic prostate cancer cell line, PC3M, was developed in order to screen small molecules that effectively disassemble PNCs (see Pettaway, et al., “Selection of highly metastatic variants of different human prostatic carcinomas using orthotopic implantation in nude mice,” Clin. Cancer Res., (2): 1627-36 (1996), incorporated herein in its entirety). PC3M has a […] stably express GFP-PTB (polypyrimidine track binding protein) (FIG. 1, top panels), an essential component of PNCs (see Huang, et al., “The perinucleolar compartment and transcription,” Journal of Cell Biology, (143): 35-47 (1998), incorporated herein in its entirety). Compounds able to reduce PNC prevalence by 50% were filtered in secondary assays to eliminate those that induced apoptosis, DNA damage, generic cytotoxicity, or cell-cycle blockage (see Norton, et al., “Automated high-content screening for compounds that disassemble the perinucleolar compartment,” J Biomol Screen, (14): 1045-53 (2009) and Frankowski, et al., “Discovery and Development of Small Molecules That Reduce PNC Prevalence, in Probe Reports from the NIH Molecular Libraries Program, Bethesda (Md.).(2010), incorporated herein in their entirety). The remaining hits were evaluated for invasion inhibition through MATRIGEL gelatinous protein mixture and anchorage-independent growth inhibition using soft agar assays.

PC3M xenograft mice = experiment: PC3M xenograft prostate cancer model; assay type: in vivo
Procedure: Metarrestin was tested in PC3M xenograft mice to determine whether metarrestin's anti-metastasis activity (observed in the NSG PANC1 mice and in vitro pan-cancer PNC suppression) translates into anti-metastasis activity in additional cancer models. Two weeks after subcutaneous implantation of PC3M cells, mice were started on 5 mg/kg or 25 mg/kg metarrestin or vehicle by daily IP injection for 4 additional weeks. Tumor progression was tracked by both in vivo imaging systems (“IVIS”) spectroscopy and tumor volume. Metastasis to the lungs was evaluated ex vivo through IVIS spectroscopy and by histopathology at the experimental endpoint. […] To evaluate the effect of metarrestin on a malignant xenograft considered closest to in vivo conditions, a patient-derived breast cancer xenotransplantation model (PDX) was used. Metastatic breast cancer cells harvested from the pleural fluid of a stage IV ductal breast cancer patient were inoculated into mice, and third generation mouse-passaged tumors were transplanted into the mammary fat pad of NOD.Cg-Prkdc^scid Il2rg^tm1Sug/JicTac mice. Treatment with metarrestin started after the tumors reached 150-200 mm^3. Metarrestin (25 mg/kg) or vehicle was administered daily by IP injection for 4 weeks with a 5-day on and 2-day off schedule. Tumor size and total body weight were measured twice a week, and tumor weight was measured at experimental end-point.
Prostate cancer model: Mice were implanted in the flank with 3×10^6 human PC-3M-luc-C6 […] tumor cells (Caliper Life Sciences) and split into 4 groups of 10 mice. Dosing with 5 or 25 mg/kg drug or vehicle alone (negative control) was initiated after 2 weeks and continued until the experimental endpoint, 6 weeks after implantation. Primary tumor size (measured with calipers), live tumor cell content (measured by biophotonic imaging), and total body weight were determined each week. At the endpoint, animals were euthanized, metastatic organs removed, and metastases quantitated by biophotonic imaging of the organs.

[1] = system: Pol I transcription (5′ETS RNA); experiment: rDNA transcription: BrU incorporation and qRT-PCR of 5′ETS; assay type: cell-based
Procedure: To determine which steps in ribosomal biogenesis that are disrupted by metarrestin, rDNA transcription was evaluated using a BrU incorporation assay, an in situ run-on assay that detects the localization pattern of newly synthesized RNA. Cells were rinsed once in glycerol buffer (20 mM Tris-HCl pH 7.4, 5 mM MgCl2, 25% glycerol, 0.5 mM PMSF, 0.5 mM EGTA) and followed by Br—U incorporation assay protocol. The cells were co-immunolabeled with C23 (Santa Cruz Biotechnology) at a 1:100 dilution and anti-BrdU that also recognizes Br—U (Sigma) at a 1:50 dilution.
To evaluate the impact on rDNA transcription in metarrestin-treated cells, the amounts of 5′ETS RNA were quantified. The amount of 5′ETS correlates with the amount of rDNA transcription because 5′ETS in nascent pre-rRNA transcripts is rapidly removed.
RT-PCR: Total RNA was isolated from cells using TRIZOL reagent (Invitrogen) according to the manufacturer's instructions. cDNA was synthesized with Random Hexamer (IDT DNA Technologies) or gene-specific primers using M-MLV Reverse Transcriptase (Invitrogen 28025-013). The DNA was PCR-amplified with gene-specific primers. 5′ETS-F: […] (SEQ ID NO: 11); 5′ETS-R: GAACGACACACCACCGTTC (SEQ ID NO: 12); eEF1A1-F: […] […]

eEF1A = experiment: Affinity purification with biotin-conjugated metarrestin and competition; assay type: binding
Excerpt: FIG. 35 is a Western blot illustrating that metarrestin effectively outcompeted recombinant eEF1A from binding to anchored biotinylated metarrestin-eEF1A complex. […] Increased eEF1A2 enhances PNCs and metastasis formation.

SMILES: N=c1c2c(-c3ccccc3)c(-c3ccccc3)n(Cc3ccccc3)c2ncn1[C@H]1CC[C@H](O)CC1 [metarrestin]
- PNC disassembly and nucleolar distortion (PC3M-GFP-PTB cells; 1 μM): ~100%
- IC90 (PC3M-GFP-PTB cells; Homo sapiens, FIG. 1): 750 nM
- IC50 (PC3M-GFP-PTB cells; Homo sapiens, P3CM cells, read-out: PNC disassembling IC50): 390 nM
- IC50 (PC3M-GFP-PTB cells; Homo sapiens, PC3M-GFP-PTB cells, read-out: IC50 for disruption of PNCs): 390 nM
- IC100 (PC3M-GFP-PTB cells; PC3M cells, 24 hours): 1 µM
- Growth of primary tumor xenografts (PC3M xenograft mice; 25 mg/kg daily IP for 4 weeks): modestly reduced growth
- Lung metastasis (PC3M xenograft mice; 25 mg/kg daily IP for 4 weeks, P<0.05 vs vehicle): decreased development of lung metastasis
- Body weight and behavior (PC3M xenograft mice; daily IP for 4 weeks): not significantly different
- Organization of newly synthesized rRNA (BrU incorporation) ([1]; five-minute incubation): altered into tight small clusters
- 5′ETS RNA (quantitative RT-PCR) ([1]; vs DMSO-treated control cells): substantial reduction of 5′ETS RNA
- Binding to eEF1A (competition and proteomic analysis) (eEF1A): metarrestin-binding protein
